Source: US6858638B2, “Substituted indazoles, compositions containing them, method of production and use” (Aventis Pharma S.A., priority 2002, dated 2005)

Target: CDK2/cyclinE kinase (Homo sapiens, UniProt P24941)
Assay: CDK2/cyclinE kinase phosphorylation of Rb-biotinylated peptide, scintillation plates
Assay type: biochemical
Details: read-out: CDK2 % inhib at 10 μM
Procedure: The inhibition of the CDK2/cyclinE kinase is evaluated by measuring the phosphorylation of the peptide substrate Rb-biotinylated, detected by […], in 96-well scintillation plates (Flashplates) coated with streptavidin.
Each point is assayed in duplicate.
Sequence of the Rb-biotinylated peptide: Biotin-[…]-OH
Protocol: • 1. Preparation of the substrate: fresh solution at 1 mg/ml in PBS. • 2. Introduce 4 μg per well into the scintillation plate. • 3. Incubate for 2 hours at ambient temperature. • 4. Prepare series of dilutions at 1 mM, 300 μM, 100 μM, 30 μM and 10 μM in DMSO from a stock solution of inhibitor at 10 mM in DMSO. • 5. Wash the scintillation plate with 3 times 300 μl of PBS to remove the unbound peptide substrate. • 6. Add the CDK2/cyclinE kinase: 200 ng per well, in 90 μl of kinase buffer (with the exception of the “without enzyme” control wells). • 7. Add the test inhibitor to each of the wells, at a final concentration for 100 μl of 10 μM, 3 μM, 1 μM, 0.3 μM and 0.1 μM. • 8. Agitate the scintillation plate gently for 1 minute. • 9. Incubate for 30 minutes on ice. • 10. Initiate the reaction with 10 μl of kinase buffer having a final concentration per well of 1 μM of cold ATP and of 1 μCi of ATP-^33P. • 11. […] Indirect measurement of the radioactivity corresponding to the incorporation of ATP-^33P, originating from the kinase, into the phosphorylation site of Rb. […]

| inhibition at 10 µM [%] | SMILES |
| --- | --- |
| 39 | Nc1n[nH]c2ccc(NS(=O)(=O)c3cccc(F)c3)cc12 [Example 26, N-(3-Amino-1H-indazol-5-yl)-3-fluorobenzenesulfonamide] |
| 73 | CS(=O)(=O)c1ccccc1S(=O)(=O)Nc1ccc2[nH]nc(-c3ccc(Cl)cc3)c2c1 [Example 30, N-[3-(4-Chlorophenyl)-1H-indazol-5-yl]-2-methylsulfonylbenzenesulfonamide] |
